Test results as given in ChEMBL document CHEMBL3992554, “Incorporation of arginine mimetic residue into peptides for recognition of double stranded nucleic acid structure: Binding and aggregation studies” (Bioorg Med Chem, 2017).
The source made the active and inactive calls. The rule behind the calls is not given here. Peptide text beside a SMILES is read from it. * marks the point of attachment. Pyrrole2CO(5-CO-guanidino) = N=C(N)NC(=O)c1ccc(C(=O)*)[nH]1

Legend:
[1] = Binding affinity to poly(dG-dC)2 DNA (unknown origin) in pH 7.4 sodium cacodylate buffer by UV-Visible titration method
[2] = organism: Bos taurus; assay: Binding affinity to calf thymus duplex DNA in pH 7.4 sodium cacodylate buffer assessed as change in melting temperature at peptide to polynucleotide ratio of 0.3 by thermal denaturation assay
[3] = Aqueous solubility of the compound in water; format: physicochemical; conditions: buffer
[4] = Chemical stability in water at +8 degC; format: physicochemical; conditions: buffer
[5] = Binding affinity to poly(dA-dT)2 DNA (unknown origin) in pH 7.4 sodium cacodylate buffer by UV-Visible titration method
[6] = Binding affinity to poly(dA-dT)2 DNA (unknown origin) in pH 7.4 sodium cacodylate buffer assessed as change in melting temperature at peptide to polynucleotide ratio of 0.3 by thermal denaturation assay
[7] = Binding affinity to poly(dG-dC)2 DNA (unknown origin) in pH 7.4 sodium cacodylate buffer assessed as positive induced CD band at peptide to polynucleotide ratio of 0.4 by CD titration method
[8] = organism: Bos taurus; assay: Binding affinity to calf thymus duplex DNA in pH 7.4 sodium cacodylate buffer assessed as positive induced CD band at peptide to polynucleotide ratio of 0.4 by CD titration method
[9] = organism: Bos taurus; assay: Induction of calf thymus duplex DNA aggregation in pH 7.4 sodium cacodylate buffer at peptide to polynucleotide ratio of 0.5 by CD titration method
[10] = Induction of poly(dA-dT)2 DNA aggregation (unknown origin) in pH 7.4 sodium cacodylate buffer at peptide to polynucleotide ratio of 0.5 by CD titration method
[11] = Binding affinity to poly(rA).(rU) RNA duplex (unknown origin) in pH 7.4 sodium cacodylate buffer assessed as positive induced CD band at peptide to polynucleotide ratio of 0.4 by CD titration method
[12] = Binding affinity to poly(dG-dC)2 DNA (unknown origin) in pH 7.4 sodium cacodylate buffer at 5.35 uM by fluorimetric titration method
[13] = Induction of poly(dG-dC)2 DNA aggregation (unknown origin) in pH 7.4 sodium cacodylate buffer at peptide to polynucleotide ratio of 0.5 by CD titration method
[14] = Binding affinity to poly(rA).(rU) RNA duplex (unknown origin) in pH 7.4 sodium cacodylate buffer assessed as change in melting temperature at peptide to polynucleotide ratio of 0.3 by thermal denaturation assay
[15] = Binding affinity to poly(rA).(rU) RNA duplex (unknown origin) in pH 7.4 sodium cacodylate buffer by UV-Visible titration method
[16] = organism: Bos taurus; assay: Binding affinity to calf thymus duplex DNA in pH 7.4 sodium cacodylate buffer by UV-Visible titration method
[17] = Binding affinity to poly(dA-dT)2 DNA (unknown origin) in pH 7.4 sodium cacodylate buffer assessed as positive induced CD band at peptide to polynucleotide ratio of 0.4 by CD titration method
[18] = organism: Bos taurus; assay: Binding affinity to calf thymus duplex DNA in pH 7.4 sodium cacodylate buffer assessed as change in melting temperature at peptide to polynucleotide ratio of 0.5 by thermal denaturation assay
[19] = Induction of poly(rA).(rU) RNA duplex aggregation (unknown origin) in pH 7.4 sodium cacodylate buffer at peptide to polynucleotide ratio of 0.5 by CD titration method
[20] = Binding affinity to poly(dA-dT)2 DNA (unknown origin) in pH 7.4 sodium cacodylate buffer at 5.35 uM by fluorimetric titration method
[21] = Binding affinity to poly(dA-dT)2 DNA (unknown origin) in pH 7.4 sodium cacodylate buffer assessed as change in melting temperature at peptide to polynucleotide ratio of 0.5 by thermal denaturation assay
[22] = Binding affinity to poly(rA).(rU) RNA duplex (unknown origin) in pH 7.4 sodium cacodylate buffer at 5.35 uM by fluorimetric titration method
[23] = Binding affinity to poly(rA).(rU) RNA duplex (unknown origin) in pH 7.4 sodium cacodylate buffer assessed as change in melting temperature at peptide to polynucleotide ratio of 0.5 by thermal denaturation assay
[24] = Aggregation of the compound in water at 25 to 95 degC by UV-Visible titration method; format: physicochemical; conditions: buffer
[25] = organism: Bos taurus; assay: Binding affinity to calf thymus duplex DNA in pH 7.4 sodium cacodylate buffer by ITC
[26] = Binding affinity to poly(rA).(rU) RNA duplex (unknown origin) in pH 7.4 sodium cacodylate buffer by ITC
[27] = Binding affinity to poly(dG-dC)2 DNA (unknown origin) in pH 7.4 sodium cacodylate buffer by ITC
[28] = Binding affinity to poly(dA-dT)2 DNA (unknown origin) in pH 7.4 sodium cacodylate buffer by ITC
[29] = Binding affinity to poly(dA-dT)2 DNA (unknown origin) in pH 7.4 sodium cacodylate buffer at peptide to polynucleotide ratio of 0.1 to 1.1 by CD titration method
[30] = Binding affinity to poly(dA-dT)2 DNA (unknown origin) in pH 7.4 sodium cacodylate buffer by fluorimetric titration method
[31] = Binding affinity to poly(rA).(rU) RNA duplex (unknown origin) in pH 7.4 sodium cacodylate buffer by fluorimetric titration method
[32] = organism: Bos taurus; assay: Induction of calf thymus duplex DNA aggregation in pH 7.4 sodium cacodylate buffer at 0.3 to 0.5 equiv after 5 mins by atomic force microscopic method
[33] = Binding affinity to poly(dA-dT)2 DNA (unknown origin) in pH 7.4 sodium cacodylate buffer at peptide to polynucleotide ratio of <0.4 by CD titration method
[34] = Binding affinity to poly(dG-dC)2 DNA (unknown origin) in pH 7.4 sodium cacodylate buffer at peptide to polynucleotide ratio of 0.1 to 0.6 by CD titration method
[35] = Binding affinity to poly(rA).(rU) RNA duplex (unknown origin) in pH 7.4 sodium cacodylate buffer at peptide to polynucleotide ratio of 0.1 to 0.95 by CD titration method
[36] = Binding affinity to poly(dG-dC)2 DNA (unknown origin) in pH 7.4 sodium cacodylate buffer by fluorimetric titration method
[37] = Binding affinity to poly(dA-dT)2 DNA (unknown origin) in pH 7.4 sodium cacodylate buffer assessed as negative induced band at peptide to polynucleotide ratio of >0.8 by CD titration method
[38] = organism: Bos taurus; assay: Induction of calf thymus duplex DNA aggregation in pH 7.4 sodium cacodylate buffer at 0.3 to 1.5 equiv by dynamic light scattering
[39] = organism: Bos taurus; assay: Binding affinity to calf thymus duplex DNA in pH 7.4 sodium cacodylate buffer at peptide to polynucleotide ratio of 0.1 to 0.5 by CD titration method
[40] = Binding affinity to poly(dA-dT)2 DNA (unknown origin) in pH 7.4 sodium cacodylate buffer at peptide to polynucleotide ratio of 0.2 to 2.1 by CD titration method
[41] = Binding affinity to poly(rA).(rU) RNA duplex (unknown origin) in pH 7.4 sodium cacodylate buffer at peptide to polynucleotide ratio of 0.2 to 2.4 by CD titration method
[42] = Binding affinity to poly(dG-dC)2 DNA (unknown origin) in pH 7.4 sodium cacodylate buffer at peptide to polynucleotide ratio of 0.2 to 2.4 by CD titration method
[43] = organism: Bos taurus; assay: Binding affinity to calf thymus duplex DNA in pH 7.4 sodium cacodylate buffer at peptide to polynucleotide ratio of 0.2 to 2.1 by CD titration method
[44] = Binding affinity to poly(dA-dT)2 DNA (unknown origin) in pH 7.4 sodium cacodylate buffer assessed as positive-negative bisignate ICD band at peptide to polynucleotide ratio of 0.1 to 1.7 by CD titration method
[45] = Binding affinity to poly(rA).(rU) RNA duplex (unknown origin) in pH 7.4 sodium cacodylate buffer assessed as positive-negative bisignate ICD band at peptide to polynucleotide ratio of 0.1 to 1.7 by CD titration method
[46] = organism: Bos taurus; assay: Binding affinity to calf thymus duplex DNA in pH 7.4 sodium cacodylate buffer assessed as positive-negative bisignate ICD band at peptide to polynucleotide ratio of 0.2 to 1.3 by CD titration method
[47] = Binding affinity to poly(dG-dC)2 DNA (unknown origin) in pH 7.4 sodium cacodylate buffer assessed as positive-negative bisignate ICD band at peptide to polynucleotide ratio of 0.1 to 1.7 by CD titration method

Compound	log Ks [1]	ΔTm [2] [°C]	solubility [3]	Stability [4]	log Ks [5]	ΔTm [6] [°C]	ΔTm [14] [°C]	log Ks [15]	log Ks [16]	ΔTm [18] [°C]	ΔTm [21] [°C]	ΔTm [23] [°C]	Activity [24]	further results
N=C(N)NC(=O)c1ccc(C(=O)NCCCC[C@H](NC(=O)[C@H](CCCCNC(=O)c2ccc(C(=O)NC(=N)N)[nH]2)NC(=O)[C@H](CCCCNC(=O)c2ccc(C(=O)NC(=N)N)[nH]2)NC(=O)[C@@H](N)CCCCNC(=O)c2ccc(C(=O)NC(=N)N)[nH]2)C(N)=O)[nH]1 (H-K(Pyrrole2CO(5-CO-guanidino))K(Pyrrole2CO(5-CO-guanidino))K(Pyrrole2CO(5-CO-guanidino))K(Pyrrole2CO(5-CO-guanidino))-NH2)	7.3	0	Soluble	Stable	5.6	0.6	2.1	7	5.4	0	0.5	2.4	Not Active	Activity [7]: Active; Activity [8]: Active; Activity [9]: Active; Activity [10]: Active; Activity [11]: Active; Activity [12]: Active; Activity [13]: Active; Activity [17]: Active; Activity [19]: Active; Activity [20]: Active; Activity [22]: Active
N=C(N)NC(=O)c1ccc(C(=O)NCCCC[C@H](NC(=O)[C@@H](N)CCCCNC(=O)c2ccc(C(=O)NC(=N)N)[nH]2)C(N)=O)[nH]1	–	–	Soluble	Stable	4.6	–	–	3.7	4.9	–	–	–	Not Active	Activity [40]: Active; Activity [41]: Active; Activity [42]: Active; Activity [43]: Active
N=C(N)NC(=O)c1ccc(C(=O)NCCCC[C@H](NC(=O)[C@H](CCCCNC(=O)c2ccc(C(=O)NC(=N)N)[nH]2)NC(=O)c2ccc(C(=O)NC(=N)N)[nH]2)C(N)=O)[nH]1	5.2	–	Soluble	Stable	4.8	–	–	4.2	4.6	–	–	–	Not Active	Activity [44]: Active; Activity [45]: Active; Activity [46]: Active; Activity [47]: Active

The next lines start with results.

log Ks [1]	ΔTm [2] [°C]	solubility [3]	Stability [4]	log Ks [5]	ΔTm [6] [°C]	ΔTm [14] [°C]	log Ks [15]	log Ks [16]	ΔTm [18] [°C]	ΔTm [21] [°C]	ΔTm [23] [°C]	Activity [24]	Compound	further results
–	1.9	Soluble	Stable	–	4.1	12.7	–	–	2.7	5	15.3	Not Active	N=C(N)NCCC[C@H](NC(=O)[C@H](CCCNC(=N)N)NC(=O)[C@H](CCCNC(=N)N)NC(=O)[C@@H](N)CCCNC(=N)N)C(N)=O (H-RRRR-NH2)	log Ks [25]: 5.33 to 5.6; log Ks [26]: 5.54 to 5.6; log Ks [27]: 5.42 to 5.5; log Ks [28]: 5.44 to 5.5; Activity [29]: Active
6.4	0.5	Soluble	Stable	5.5	3.3	7.9	5.3	6.1	2.6	4.9	11.1	Not Active	N=C(N)NC(=O)c1ccc(C(=O)NCCCC[C@H](NC(=O)[C@H](CCCCN)NC(=O)[C@H](CCCCN)NC(=O)[C@@H](N)CCCCN)C(N)=O)[nH]1 (H-KKKK(Pyrrole2CO(5-CO-guanidino))-NH2)	Activity [30]: Active; Activity [31]: Active; Activity [32]: Active; Activity [33]: Active; Activity [34]: Active; Activity [35]: Active; Activity [36]: Active; Activity [37]: Active; Activity [38]: Active; Activity [39]: Active
